How the values were obtained:
Format in all cases: in vivo
[1] = test system: barnyardgrass (Echinochloa crus-galli); experiment: Test A pre-/postemergence plant response
Outline: (§1)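 Injury was scored visually after roughly ten days against untreated controls, 0 = no effect, 100 = complete control. Test chemicals in a surfactant-containing non-phytotoxic solvent were sprayed either onto soil preemergence or onto one- to two-leaf, 2–10 cm plants postemergence.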

corn (Zea mays) = experiment: Test A pre-/postemergence plant response
Outline: as §1

[2] = test system: giant foxtail (Setaria faberii); experiment: Test A pre-/postemergence plant response
Outline: as §1

[3] = test system: large crabgrass (Digitaria sanguinalis); experiment: Test A pre-/postemergence plant response
Outline: as §1

[4] = test system: morningglory (Ipomoea spp.); experiment: Test A pre-/postemergence plant response
Outline: as §1

[5] = test system: pigweed (Amaranthus retroflexus); experiment: Test A pre-/postemergence plant response
Outline: as §1

[6] = test system: velvetleaf (Abutilon theophrasti); experiment: Test A pre-/postemergence plant response
Outline: as §1

[7] = test system: wheat (Triticum aestivum); experiment: Test A pre-/postemergence plant response
Outline: as §1

[8] = test system: barnyardgrass (Echinochloa crus-galli); experiment: Test B flooded paddy test; conditions: for Plant response rating, Barnyardgrass: Flood (flooded paddy test), 13 to 15 days
Outline: (§2)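 Post-flood paddy application: compounds are introduced into water 3 cm deep over the soil, reaching plants at the 2-leaf stage. The water level is maintained, and after 13–15 days under greenhouse conditions, response is judged by eye relative to controls, where 100 means complete control.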

[9] = test system: ducksalad (Heteranthera limosa); experiment: Test B flooded paddy test; conditions: for Plant response rating, Ducksalad: Flood (flooded paddy test), 13 to 15 days
Outline: as §2

rice (Oryza sativa) = experiment: Test B flooded paddy test; conditions: for Plant response rating, Rice: Flood (flooded paddy test), 13 to 15 days
Outline: as §2

[10] = test system: umbrella sedge (Cyperus difformis); experiment: Test B flooded paddy test; conditions: for Plant response rating, Sedge, Umbrella: Flood (flooded paddy test), 13 to 15 days
Outline: as §2

[11] = Postemergence, 125 g ai/ha, visual injury, 0 to 100 scale (0 no effect, 100 complete control), approx. ten days
[12] = Postemergence, 500 g ai/ha, 0 to 100 scale, 0 = no effect, 100 = complete control, approx. ten days
[13] = Preemergence, 125 g ai/ha, 0 to 100 scale, 0 = no effect, 100 = complete control
[14] = Preemergence, 500 g ai/ha, visual injury, 0 to 100 scale (0 no effect, 100 complete control), approx. ten days
[15] = 250 g ai/ha, flooded paddy test, visual rating on 0 to 100 scale (0 no effect, 100 complete control) after 13 to 15 days
[16] = 31 g ai/ha, scale of 0 to 100 where 0 is no effect and 100 is complete control
[17] = 62 g ai/ha, scale 0 to 100, 0 is no effect, 100 is complete control
[18] = 125 g ai/ha, scale 0 to 100, 0 is no effect, 100 is complete control

5-[(2-hydroxy-6-oxo-1-cyclohexen-1-yl)carbonyl]-3-phenyl-2-(3-pyridinyl)-4(3H)-pyrimidone [Compound 113]
Barnyardgrass plant response rating [1, 11]: 30
Plant response rating, Barnyardgrass [1, 12]: 70
Plant response rating, Barnyardgrass [1, 13]: 0
Plant response rating, Barnyardgrass [1, 14]: 10
Corn plant response rating (corn (Zea mays); [11]): 0
Plant response rating, Corn (corn (Zea mays); [12]): 40
Plant response rating, Corn (corn (Zea mays); [13]): 0
Plant response rating, Corn (corn (Zea mays); [14]): 0
Foxtail, Giant plant response rating [2, 11]: 40
Plant response rating, Foxtail, Giant [2, 12]: 60
Plant response rating, Foxtail, Giant [2, 13]: 0
Plant response rating, Foxtail, Giant [2, 14]: 20
Crabgrass, Large plant response rating [3, 11]: 50
Plant response rating, Crabgrass, Large [3, 12]: 70
Plant response rating, Crabgrass, Large [3, 13]: 0
Plant response rating, Crabgrass, Large [3, 14]: 40
Morningglory plant response rating [4, 11]: 100
Plant response rating, Morningglory [4, 12]: 100
Plant response rating, Morningglory [4, 13]: 0
Plant response rating, Morningglory [4, 14]: 40
Pigweed plant response rating [5, 11]: 80
Plant response rating, Pigweed [5, 12]: 100
Plant response rating, Pigweed [5, 13]: 10
Plant response rating, Pigweed [5, 14]: 80
Velvetleaf plant response rating [6, 11]: 100
Plant response rating, Velvetleaf [6, 12]: 100
Plant response rating, Velvetleaf [6, 13]: 60
Plant response rating, Velvetleaf [6, 14]: 100
Wheat plant response rating [7, 11]: 0
Plant response rating, Wheat [7, 12]: 40
Plant response rating, Wheat [7, 13]: 0
Plant response rating, Wheat [7, 14]: 0
Plant response rating, Flood, Barnyardgrass [8, 15]: 0
Plant response rating, Barnyardgrass [8, 16]: 0
Plant response rating, Barnyardgrass [8, 17]: 0
Plant response rating, Barnyardgrass [8, 18]: 0
Plant response rating, Flood, Ducksalad [9, 15]: 0
Plant response rating, Ducksalad [9, 16]: 0
Plant response rating, Ducksalad [9, 17]: 0
Plant response rating, Ducksalad [9, 18]: 0
Plant response rating, Flood, Rice (rice (Oryza sativa); [15]): 0
Plant response rating, Rice (rice (Oryza sativa); [16]): 0
Plant response rating, Rice (rice (Oryza sativa); [17]): 0
Plant response rating, Rice (rice (Oryza sativa); [18]): 0
Plant response rating, Flood, Sedge, Umbrella [10, 15]: 0
Plant response rating, Sedge, Umbrella [10, 16]: 0
Plant response rating, Sedge, Umbrella [10, 17]: 0
Plant response rating, Sedge, Umbrella [10, 18]: 0

Source: patent publication US8952024B2, “Herbicidal pyrimidone derivatives” (E I du Pont de Nemours and Company, priority 2009, dated 2015)
